The values that follow come from US9447033B2, “Potassium channel blockers” (Japan Tobacco Inc., priority 2008, dated 2016).

In one test the target is T1, human Kv1.3 (Homo sapiens, UniProt P22001).
T1 construct: expressed in transfected cells
Nature of the test: Kv1.3 Autopatch electrophysiology (whole cell). The conditions noted are these: compound at 1 μM; inhibition of charge movement relative to control; room temperature; read-out: hKv1.3 % Inh. The test is classed as cell-based. How it is done: Kv1.3 Autopatch Electrophysiology Method
Cells stably transfected with cDNA for human Kv1.3 (in pcDNA3.1) were grown in Ex-cell 302 serum-free medium for CHO cells, supplemented with 10 μl/ml [100×] glutamine, 500 μg/ml G418 ([…]), and 1% HT supplement (50×, hypoxanthine and thymidine). Compounds were tested on these cells using the AutoPatch technology in whole cell mode.
The external bathing solution contained (in mM): 150 NaCl, 10 KCl, MgCl2, 3 CaCl2, 10 HEPES, pH 7.4 with NaOH. Patch pipettes were filled with an electrode solution of composition (in mM): 100 K-Gluconate, 20 KCl, 1 MgCl2, CaCl2, 10 HEPES, 11 EGTA, 5 ATP-Na2, 2 Glutathione pH 7.2 with KOH.
Compounds were dissolved in DMSO (100%) and made up in the external bather at a concentration of 1 μM immediately prior to use. All experiments were conducted at room temperature.
A cell suspension (10 ml), with a density of 6×10^6 cells, was aliquoted into a 15 ml centrifuge tube and stored at 4° C. before use. Prior to use a tube was taken and centrifuged at 1000 rpm for 4 mins at room temperature. The supernatant was then discarded, leaving a cell pellet at the bottom of the tube. The pellet was then resuspended using 1 ml of cold (4° C.), filtered (0.22 μm), 0.05% BSA/bather solution (0.05 g BSA/100 ml bather). The bottom of the tube was manually agitated followed by gentle tituration. The cell suspension was then placed in the AutoPatch™ temperature controlled cell-hotel at 14° C. and regularly titurated.
A length of Teflon capillary tubing was dipped into the cell suspension solution, and a column of fluid was taken up by negative pressure. The column of fluid was in electrically connectivity with a Ag/AeCl reference electrode. Borosilicate glass patch pipettes (from 1.5 mm OD, thin-walled filamented, GC150-TF capillary glass, Harvard) were pulled using a DMZ pipette puller (Zeitz Instruments), and were back-filled using the internal pipette solution, being careful that no bubbles remained at the tip or in the body of the pipette. Patch pipettes typically had resistances of 2.5-3.5 MΩ. Once filled, the pipette tip and a proportion of the shaft (˜15 mm) were dipped into Sigmacote (Sigma). The recording pipettes were placed in a multiwell array and mounted on the AutoPatch™ machine. Automated patch-clamping and drug-application was initiated by the operator, but thereafter AutoPatch.exe continued the experiment providing that pre-set conditions and criteria were satisfied.
Whole cell patch-clamp recordings were made using the AutoPatch™ rig, which incorporated an EPC9 or EPC10 amplifier (HEKA, Germany) under control of Pulse software (v8.54 or v8.76, HEKA, Germany), a cell applicator, automated drug application system (DAS), valve controller (VFI) and a suction device all at room temperature. This equipment was completely under the control of AutoPatch.exe and operator intervention was only made when there was a requirement to refill the bather reservoirs or to prevent the loss of a cell due to a technical error. […]
Electrophysiology voltage-step protocols and analysis of data was performed as follows. […] Online analysis of the hKv1.3 current during the application of compounds was performed by the Pulse (v8.54 or v8.76, HEKA, Germany), Excel (Microsoft, USA) and AutoPatch™ software, with the total charge measured during the whole of voltage step. Inhibition of charge movement in the presence of drug was calculated relative to control.

A further test has as its target hKv1.5 (Homo sapiens, UniProt P22460). Nature of the test: Kv1.5 Autopatch electrophysiology (whole cell). The test is classed as cell-based. The note with it: hKv1.5 current, test concentration not given, read-out: hKv1.5 % Inh. The method, then: Kv1.5 Autopatch Electraphysiogogy Method
The external bathing solution contained (in mM): 150 NaCl, 10 KCl, […], 3 MgCl2, 1 CaCl2, 10 HEPES, pH 7.4. Patch pipettes were filled with an electrode solution of composition (in mM): 160 KCl, 0.5 MgCl2, 10 HEPES, 1 EGTA, pH 7.4 with KOH.
Compounds were dissolved in DMSO (100%) and made up in the external bather at a concentration of 1 μM. All experiments were conducted at room temperature (22-24° C.).
A cell suspension (10 ml), with a density of 100,000 cells/ml, was aliquoted into a 15 ml centrifuge tube and transferred to an incubator (37° C., 5% CO2) for approximately one hour before use. Following 60 min incubation, a tube was taken and centrifuged at 1000 rpm for 4 mins at mom temperature. 9.5 ml supernatant was thence discarded, leaving a cell pellet a the bottom of the tube. The pellet was then resuspended using 100 μl of cold (4° C.), filtered (0.22 μm), 0.2% BSA/bather solution (0.02 g BSA/10 ml bather). The bottom of the tube was manually agitated gently until the solution became cloudy with cells. The 100 μl cell resuspension solution was then stored on the bench at 4° C. (using a Peltier-based temperature control device) until used.
A length of capillary glass (1B150F-4, WPI) was dipped into the cell suspension solution, such that ˜3 cm column of fluid was taken up by capillary action. A Ag/AgCl wire was dropped into the non-dipped end of the capillary also. The outside of the solution-filled end of the capillary was then dried and the capillary was loaded into the AutoPatch™.
Borosilicate glass patch pipettes (from 1.5 mm OD, thin-walled filamented, GC150-TF capillary glass, Harvard) were pulled using a DMZ pipette puller (Zeitz instruments), and were back-filled using the internal pipette solution, being careful that no bubbles remain at the tip or in the body of the pipette. Patch pipettes typically had resistances of 2.3-3.5 MΩ. Once filled, the pipette tip and a proportion of the shaft (˜15 mm) were dipped into Sigmacote (Sigma). The recording pipette was then loaded into the AutoPatch™. Automated patch-clamping was initiated by the operator, but thereafter AutoPatch.exe continued the experiment providing that pre-set conditions and criteria were satisfied.
Whole cell patch-clamp recordings were made using the AutoPatch™ rig, which incorporated an EPC9 amplifier (HEKA, Germany) under control of Pulse software (v8.54, HEKA, Germany), a motion controller with 2 translators (Newport, UK), valve controller (VFI) and a c-level suction device all at room temperature (22-24° C.). This equipment was completely under the control of AutoPatch.exe and operator intervention was only made when there was a requirement to refill the drug reservoirs or to prevent the loss of a cell due to a technical error. Cells with an Rseries greater than 18 MΩ were discounted from the experiment.
Qualification stages prior to perfusion and drug application ensured that the observed current met the criteria for the experiment. Only those cells with an 1K>500 pA were used for experiments. Cells were continuously perfused with external solution at a flow rate of 1.8-2 ml/minute. […]
Electrophysiology voltage-step protocols and analysis of data was performed as follows. […] Currents were analysed using Pulsefit software (v8.54, HEKA, Germany), with the total charge measured during the whole of the voltage step. […]

The structures appear in SMILES notation.

T1 sequence (P22001 whole entry): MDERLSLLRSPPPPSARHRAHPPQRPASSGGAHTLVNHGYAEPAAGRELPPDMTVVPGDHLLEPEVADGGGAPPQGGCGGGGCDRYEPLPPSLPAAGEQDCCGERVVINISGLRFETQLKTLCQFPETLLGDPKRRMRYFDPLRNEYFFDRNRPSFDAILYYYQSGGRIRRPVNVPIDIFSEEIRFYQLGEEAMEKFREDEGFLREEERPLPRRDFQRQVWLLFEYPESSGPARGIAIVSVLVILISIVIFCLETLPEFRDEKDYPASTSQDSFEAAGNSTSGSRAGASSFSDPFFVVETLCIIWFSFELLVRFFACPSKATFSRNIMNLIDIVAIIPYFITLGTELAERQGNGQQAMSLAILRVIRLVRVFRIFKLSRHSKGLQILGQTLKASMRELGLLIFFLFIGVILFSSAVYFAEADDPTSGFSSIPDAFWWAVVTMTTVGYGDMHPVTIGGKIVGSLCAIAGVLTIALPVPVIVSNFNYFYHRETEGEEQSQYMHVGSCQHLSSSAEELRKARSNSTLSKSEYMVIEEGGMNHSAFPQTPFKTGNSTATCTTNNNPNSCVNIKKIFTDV
Chain of hKv1.5 (P22460 whole entry): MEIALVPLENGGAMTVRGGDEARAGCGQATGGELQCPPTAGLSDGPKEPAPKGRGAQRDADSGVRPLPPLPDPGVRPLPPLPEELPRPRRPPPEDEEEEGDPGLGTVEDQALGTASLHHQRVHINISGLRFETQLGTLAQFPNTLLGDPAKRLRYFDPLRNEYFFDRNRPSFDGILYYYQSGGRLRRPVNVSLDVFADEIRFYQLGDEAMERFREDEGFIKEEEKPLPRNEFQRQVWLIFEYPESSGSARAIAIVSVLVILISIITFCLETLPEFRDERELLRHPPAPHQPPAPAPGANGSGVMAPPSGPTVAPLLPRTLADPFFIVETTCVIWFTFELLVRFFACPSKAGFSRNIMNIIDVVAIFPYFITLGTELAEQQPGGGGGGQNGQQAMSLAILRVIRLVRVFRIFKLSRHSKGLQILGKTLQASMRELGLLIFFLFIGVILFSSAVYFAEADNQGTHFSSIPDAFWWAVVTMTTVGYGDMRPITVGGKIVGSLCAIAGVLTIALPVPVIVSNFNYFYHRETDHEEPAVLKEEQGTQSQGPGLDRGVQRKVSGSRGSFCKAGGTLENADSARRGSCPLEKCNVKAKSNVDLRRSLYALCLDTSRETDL

On to `CC(C)NC(=O)c1cccc(N(Cc2ccccc2)S(=O)(=O)c2cccnc2)c1` [Example 3, 3-[Benzyl-(pyridine-3-sulfonyl)-amino]-N-isopropyl-benzamide], for which the inhibition at 1 µM on human Kv1.3 worked out at 92%; on hKv1.5, 52%.

As to `O=C(Nc1ccc2cn[nH]c2c1)c1cccc(N(Cc2ccccc2)S(=O)(=O)c2ccccc2)c1` [Example 4, 3-(Benzenesulfonyl-benzyl-amino)-N-(1H-indazol-6-yl)-benzamide], the inhibition at 1 µM came out at 88% at human Kv1.3 and 99% at hKv1.5.

As to `CC(=O)Nc1ccc(S(=O)(=O)N(Cc2ccccc2)c2cccc(C(=O)NC(C)C)c2)cc1` [Example 5, 3-[(4-Acetylamino-benzenesulfonyl)-benzyl-amino]-N-isopropyl-benzamide], the inhibition at 1 µM on human Kv1.3 was 45%; at hKv1.5, 18%.

Turning to `CC(C)NC(=O)c1cccc(N(Cc2ccc(Cl)cc2)S(=O)(=O)c2ccnn2C)c1` [Example 7, 3-[(4-Chloro-benzyl)-(2-methyl-2H-pyrazole-3-sulfonyl)-amino]-N-isopropyl-benzamide], the inhibition at 1 µM was determined as 57% on human Kv1.3 and 54% at hKv1.5.

Regarding `Cn1ccc(S(=O)(=O)N(Cc2ccc(Cl)cc2)c2cccc(C(=O)NCCO)c2)n1` [Example 1, 3-[(4-Chloro-benzyl)-(1-methyl-1H-pyrazole-3-sulfonyl)-amino]-N-(2-hydroxy-ethyl)-benzamide], the inhibition at 1 µM at human Kv1.3 is 86%; on hKv1.5, 48%.
